# Patent US9834571B2, “Compounds for inhibiting cell proliferation in EGFR-driven cancers” (ARIAD Pharmaceuticals, Inc., priority 2012, dated 2017)
# Tests used:
# EGFR L858R/T790M = EGFR L858R/T790M (Homo sapiens, UniProt P00533, L858R/T790M); experiment: Kinase inhibitory activity against EGFR bearing the L858R/T790M double mutation; type: biochemical; conditions: EGFR L858R/T790M double mutation; 10 μM ATP; read-out: IC50 for kinase inhibition, EGFR L858R T790M
# In short: (§1)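 Each assay used 10 μM ATP. Inhibitors were tested as 10-point curves, highest concentration 3 μM, no replicates.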
# [1] = target: human EGFR (native sequence) (Homo sapiens, UniProt P00533); experiment: Kinase inhibitory activity against human EGFR (native sequence); type: biochemical; conditions: human EGFR native sequence; 10 μM ATP; read-out: IC50 for kinase inhibition, EGFR
# Sequence of human EGFR (native sequence) (P00533 25-1210): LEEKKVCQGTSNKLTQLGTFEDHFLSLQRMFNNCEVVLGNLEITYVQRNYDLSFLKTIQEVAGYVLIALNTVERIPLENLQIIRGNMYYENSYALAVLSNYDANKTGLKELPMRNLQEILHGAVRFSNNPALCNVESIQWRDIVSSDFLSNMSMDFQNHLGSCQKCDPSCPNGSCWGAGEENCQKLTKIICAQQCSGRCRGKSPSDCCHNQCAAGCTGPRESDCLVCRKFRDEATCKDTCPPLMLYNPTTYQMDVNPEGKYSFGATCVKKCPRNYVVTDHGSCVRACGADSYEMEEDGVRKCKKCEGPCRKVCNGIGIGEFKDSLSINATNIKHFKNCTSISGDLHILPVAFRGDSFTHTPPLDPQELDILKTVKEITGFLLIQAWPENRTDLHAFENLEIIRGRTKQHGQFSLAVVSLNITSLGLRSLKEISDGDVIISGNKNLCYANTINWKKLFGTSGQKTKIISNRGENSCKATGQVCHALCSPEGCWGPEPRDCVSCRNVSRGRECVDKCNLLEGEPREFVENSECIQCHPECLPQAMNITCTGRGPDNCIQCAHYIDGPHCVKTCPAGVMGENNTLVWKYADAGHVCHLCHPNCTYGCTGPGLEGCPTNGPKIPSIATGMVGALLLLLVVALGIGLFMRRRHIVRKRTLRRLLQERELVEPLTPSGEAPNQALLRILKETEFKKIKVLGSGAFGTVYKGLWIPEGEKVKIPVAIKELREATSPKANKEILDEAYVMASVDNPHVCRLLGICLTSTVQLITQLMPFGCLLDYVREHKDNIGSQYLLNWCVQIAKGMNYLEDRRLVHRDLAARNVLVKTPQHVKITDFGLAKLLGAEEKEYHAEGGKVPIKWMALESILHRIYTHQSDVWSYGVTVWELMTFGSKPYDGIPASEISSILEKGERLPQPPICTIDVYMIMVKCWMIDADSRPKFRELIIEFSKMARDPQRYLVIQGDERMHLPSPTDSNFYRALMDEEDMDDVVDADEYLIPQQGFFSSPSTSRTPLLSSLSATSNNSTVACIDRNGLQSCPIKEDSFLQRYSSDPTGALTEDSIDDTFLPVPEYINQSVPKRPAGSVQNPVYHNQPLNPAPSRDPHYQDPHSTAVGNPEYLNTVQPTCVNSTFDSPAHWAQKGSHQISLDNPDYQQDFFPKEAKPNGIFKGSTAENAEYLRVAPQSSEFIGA
# In short: as §1
# [2] = target: T1, BaF3 cells expressing the target EGFR mutations (Homo sapiens, UniProt P00533, T790M, cells depend on it, form not given); experiment: Antiproliferative activity (MTT) against BaF3 cells expressing the target EGFR mutations; type: cell-based; conditions: BAF3 EGFR DEL T790M PURO POOL cells, read-out: IC50, BAF3 EGFR DEL T790M PURO POOL
# T1 construct: IC50, BAF3 EGFR DEL T790M PURO POOL; other: BAF3 EGFR DEL T790M PURO POOL cells, MTT; other: BAF3 EGFR DEL T790M PURO POOL cells; MTT
# T1 sequence (P00533 with tags, fused parts or gaps DEL746-750/T790M, form open): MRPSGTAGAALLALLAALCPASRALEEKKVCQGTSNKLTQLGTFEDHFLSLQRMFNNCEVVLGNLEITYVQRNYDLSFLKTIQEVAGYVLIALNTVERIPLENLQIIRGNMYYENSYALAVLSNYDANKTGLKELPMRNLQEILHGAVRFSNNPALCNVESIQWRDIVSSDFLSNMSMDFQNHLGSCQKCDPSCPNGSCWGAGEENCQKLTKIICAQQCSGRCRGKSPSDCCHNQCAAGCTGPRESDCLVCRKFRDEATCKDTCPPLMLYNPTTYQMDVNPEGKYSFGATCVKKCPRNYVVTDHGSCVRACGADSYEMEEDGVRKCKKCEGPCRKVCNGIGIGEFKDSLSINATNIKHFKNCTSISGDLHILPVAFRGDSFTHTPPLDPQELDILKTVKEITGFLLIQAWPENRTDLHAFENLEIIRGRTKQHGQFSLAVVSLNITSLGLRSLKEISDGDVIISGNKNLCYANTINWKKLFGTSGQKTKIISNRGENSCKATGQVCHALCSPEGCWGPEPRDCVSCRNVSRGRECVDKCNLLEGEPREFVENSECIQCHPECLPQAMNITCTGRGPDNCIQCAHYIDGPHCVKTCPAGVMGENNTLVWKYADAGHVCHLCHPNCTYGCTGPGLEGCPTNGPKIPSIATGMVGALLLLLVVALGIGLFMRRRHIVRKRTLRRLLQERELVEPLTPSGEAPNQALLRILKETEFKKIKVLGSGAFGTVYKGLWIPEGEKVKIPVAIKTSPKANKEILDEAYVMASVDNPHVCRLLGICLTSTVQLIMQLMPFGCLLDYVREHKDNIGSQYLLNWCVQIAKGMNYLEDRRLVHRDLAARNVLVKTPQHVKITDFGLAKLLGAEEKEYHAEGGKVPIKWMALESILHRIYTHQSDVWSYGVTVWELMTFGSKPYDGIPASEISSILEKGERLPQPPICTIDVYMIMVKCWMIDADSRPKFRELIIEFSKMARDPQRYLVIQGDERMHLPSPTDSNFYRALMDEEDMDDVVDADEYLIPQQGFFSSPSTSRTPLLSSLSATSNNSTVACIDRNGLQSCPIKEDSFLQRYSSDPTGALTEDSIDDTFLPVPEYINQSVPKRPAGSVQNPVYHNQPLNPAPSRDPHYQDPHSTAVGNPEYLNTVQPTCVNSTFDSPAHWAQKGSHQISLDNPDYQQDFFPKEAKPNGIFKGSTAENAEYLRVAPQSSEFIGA
# In short: (§2)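 Growth inhibition of EGFR-mutant BaF3 cells was assessed with an MTT assay. A BaF3 line expressing wildtype EGFR served as comparator.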
# [3] = target: T2, BaF3 cells expressing the target EGFR mutations (Homo sapiens, UniProt P00533, T790M/L858R, cells depend on it); experiment: as above; type: cell-based; conditions: BAF3 EGFR L858R-T790M PURO POOL cells, read-out: IC50, BAF3 EGFR L858R-T790M PURO POOL
# T2 construct: IC50, BAF3 EGFR L858R-T790M PURO POOL; other: BAF3 EGFR L858R-T790M PURO POOL cells, MTT; IC50, BAF3 EGFR L858R-T790M PURO POOL; other: BAF3 EGFR L858R-T790M PURO POOL cells; MTT
# In short: as §2
# EGFR L858R = EGFR L858R (Homo sapiens, UniProt P00533, L858R); experiment: Kinase inhibitory activity against EGFR bearing the L858R mutation; type: biochemical; conditions: EGFR L858R; 10 μM ATP; read-out: IC50 for kinase inhibition, EGFR L858R
# Sequence of EGFR L858R (P00533 25-1210 L858R): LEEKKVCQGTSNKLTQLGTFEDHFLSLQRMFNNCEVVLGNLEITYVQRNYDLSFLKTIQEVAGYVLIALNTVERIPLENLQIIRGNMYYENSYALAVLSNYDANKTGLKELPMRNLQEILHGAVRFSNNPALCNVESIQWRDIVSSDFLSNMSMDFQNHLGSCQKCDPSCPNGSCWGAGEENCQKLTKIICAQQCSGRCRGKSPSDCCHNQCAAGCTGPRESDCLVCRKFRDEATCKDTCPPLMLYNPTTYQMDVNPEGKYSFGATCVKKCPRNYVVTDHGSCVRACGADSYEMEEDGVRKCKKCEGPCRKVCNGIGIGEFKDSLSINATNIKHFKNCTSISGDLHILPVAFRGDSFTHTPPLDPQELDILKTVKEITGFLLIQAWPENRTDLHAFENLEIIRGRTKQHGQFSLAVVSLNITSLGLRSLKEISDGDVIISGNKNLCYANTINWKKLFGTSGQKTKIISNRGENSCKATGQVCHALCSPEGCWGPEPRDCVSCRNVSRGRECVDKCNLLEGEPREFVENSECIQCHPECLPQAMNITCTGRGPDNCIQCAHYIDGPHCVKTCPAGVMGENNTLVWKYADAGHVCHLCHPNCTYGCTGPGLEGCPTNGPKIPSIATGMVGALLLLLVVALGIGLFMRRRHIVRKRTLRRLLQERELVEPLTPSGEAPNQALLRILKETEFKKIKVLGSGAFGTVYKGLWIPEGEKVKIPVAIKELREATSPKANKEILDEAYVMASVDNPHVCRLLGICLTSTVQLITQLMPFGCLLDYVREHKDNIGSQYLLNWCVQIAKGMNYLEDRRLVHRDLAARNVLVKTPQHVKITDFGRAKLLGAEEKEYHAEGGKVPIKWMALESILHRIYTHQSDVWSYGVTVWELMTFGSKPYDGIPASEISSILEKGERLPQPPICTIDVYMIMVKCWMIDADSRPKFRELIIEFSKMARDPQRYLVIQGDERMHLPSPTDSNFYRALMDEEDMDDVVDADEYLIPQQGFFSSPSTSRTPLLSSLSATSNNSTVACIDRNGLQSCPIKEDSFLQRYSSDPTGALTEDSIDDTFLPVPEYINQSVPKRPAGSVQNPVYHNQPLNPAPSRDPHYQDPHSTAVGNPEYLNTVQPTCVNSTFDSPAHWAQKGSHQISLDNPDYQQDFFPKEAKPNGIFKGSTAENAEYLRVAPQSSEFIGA
# In short: as §1
# [4] = system: BaF3 cells expressing wildtype EGFR; experiment: Antiproliferative activity (MTT) against control BaF3 cells expressing wildtype EGFR; type: cell-based; conditions: Mus musculus, BAF3 PARENTAL cells (control)
# In short: as §2
# Sequence of EGFR L858R/T790M (P00533 25-1210 T790M/L858R): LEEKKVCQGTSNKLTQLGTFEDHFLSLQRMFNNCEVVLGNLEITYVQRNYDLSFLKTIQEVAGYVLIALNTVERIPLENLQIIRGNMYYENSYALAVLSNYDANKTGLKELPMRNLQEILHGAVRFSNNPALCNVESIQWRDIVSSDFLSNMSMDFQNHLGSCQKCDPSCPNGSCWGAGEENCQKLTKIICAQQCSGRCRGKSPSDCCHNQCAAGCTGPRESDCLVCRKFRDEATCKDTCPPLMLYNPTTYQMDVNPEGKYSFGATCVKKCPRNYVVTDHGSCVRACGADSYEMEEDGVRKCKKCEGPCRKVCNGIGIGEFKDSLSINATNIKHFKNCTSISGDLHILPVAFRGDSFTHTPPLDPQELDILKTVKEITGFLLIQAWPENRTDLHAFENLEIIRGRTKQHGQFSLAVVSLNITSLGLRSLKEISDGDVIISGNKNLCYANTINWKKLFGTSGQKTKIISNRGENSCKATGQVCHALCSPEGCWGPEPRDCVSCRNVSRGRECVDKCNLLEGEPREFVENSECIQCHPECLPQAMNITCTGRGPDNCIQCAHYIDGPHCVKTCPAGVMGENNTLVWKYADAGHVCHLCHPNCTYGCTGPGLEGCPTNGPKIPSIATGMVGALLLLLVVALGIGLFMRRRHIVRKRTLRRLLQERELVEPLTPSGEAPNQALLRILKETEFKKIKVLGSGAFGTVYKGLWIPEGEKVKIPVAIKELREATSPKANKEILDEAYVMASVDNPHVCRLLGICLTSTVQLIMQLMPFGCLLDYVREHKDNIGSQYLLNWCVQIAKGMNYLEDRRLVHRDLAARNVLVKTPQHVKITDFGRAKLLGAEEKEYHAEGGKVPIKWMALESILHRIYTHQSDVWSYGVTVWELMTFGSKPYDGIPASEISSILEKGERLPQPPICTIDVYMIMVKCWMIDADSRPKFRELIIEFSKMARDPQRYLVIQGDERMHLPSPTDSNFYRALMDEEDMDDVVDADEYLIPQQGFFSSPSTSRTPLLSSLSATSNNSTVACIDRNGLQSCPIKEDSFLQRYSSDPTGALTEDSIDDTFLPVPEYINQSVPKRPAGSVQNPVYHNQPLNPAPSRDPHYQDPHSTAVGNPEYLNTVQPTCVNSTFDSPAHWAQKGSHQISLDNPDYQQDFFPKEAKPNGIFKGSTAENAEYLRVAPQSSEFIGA
IC50 (EGFR L858R/T790M) [nM],IC50 [1] [nM],GI50 [2] [nM],GI50 [3] [nM],IC50 (EGFR L858R) [nM],SMILES,IC50 [4] [nM]
< 50,≥ 250,≥ 250,≥ 250,< 50,"COc1ccc(NC(=O)C2=CCCN(C)C2)cc1Nc1ncc(Cl)c(Nc2ccccc2P(C)(C)=O)n1 [Example 84, N-(3-((5-chloro-4-((2-(dimethylphosphoryl)phenyl)amino)pyrimidin-2-yl)amino)-4-methoxyphenyl)-1-methyl-1,2,5,6-tetrahydropyridine-3-carboxamide]",≥ 250
< 50,< 50,< 50,< 50,< 50,"COc1cc(F)c(NC(=O)/C=C/Cl)cc1Nc1ncc(Cl)c(Nc2ccccc2P(C)(C)=O)n1 [Example 85, (E)-3-chloro-N-(5-((5-chloro-4-((2-(dimethylphosphoryl)phenyl)amino)pyrimidin-2-yl)amino)-2-fluoro-4-methoxyphenyl)acrylamide]",≥ 250
< 50,50 to 100,< 50,50 to 100,< 50,"C=CC(=O)Nc1ccc(OC)c(Nc2ncc(Cl)c(Nc3ccc(OCCOC)cc3P(C)(C)=O)n2)c1 [Example 86, N-(3-((5-chloro-4-((2-(dimethylphosphoryl)-4-(2-methoxyethoxy)phenyl)amino)pyrimidin-2-yl)amino)-4-methoxyphenyl)acrylamide]",≥ 250
< 50,< 50,< 50,< 50,< 50,"COc1cc(F)c(NC(=O)C#CCN(C)C)cc1Nc1ncc(Cl)c(Nc2ccccc2P(C)(C)=O)n1 [Example 87, N-(5-((5-chloro-4-((2-(dimethylphosphoryl)phenyl)amino)pyrimidin-2-yl)amino)-2-fluoro-4-methoxyphenyl)-4-(dimethylamino)but-2-ynamide]",101 to 250
< 50,< 50,< 50,< 50,< 50,"COc1cc(F)c(NC(=O)C#CCCN2CCCCC2)cc1Nc1ncc(Cl)c(Nc2ccccc2P(C)(C)=O)n1 [Example 88, N-(5-((5-chloro-4-((2-(dimethylphosphoryl)phenyl)amino)pyrimidin-2-yl)amino)-2-fluoro-4-methoxyphenyl)-5-(piperidin-1-yl)pent-2-ynamide]",≥ 250
< 50,< 50,< 50,< 50,< 50,"COc1cc(F)c(NC(=O)C#CCN2CCCC2)cc1Nc1ncc(Cl)c(Nc2ccccc2P(C)(C)=O)n1 [Example 89, N-(5-((5-chloro-4-((2-(dimethylphosphoryl)phenyl)amino)pyrimidin-2-yl)amino)-2-fluoro-4-methoxyphenyl)-4-(pyrrolidin-1-yl)but-2-ynamide]",≥ 250
< 50,< 50,< 50,< 50,< 50,"COc1cc(F)c(NC(=O)C#CC(C)(C)N2CCCC2)cc1Nc1ncc(Cl)c(Nc2ccccc2P(C)(C)=O)n1 [Example 90, N-(5-((5-chloro-4-((2-(dimethylphosphoryl)phenyl)amino)pyrimidin-2-yl)amino)-2-fluoro-4-methoxyphenyl)-4-methyl-4-(pyrrolidin-1-yl)pent-2-ynamide]",≥ 250
< 50,< 50,< 50,< 50,< 50,"COc1ccc(NC(=O)C#CC(C)(C)N2CCCC2)cc1Nc1ncc(Cl)c(Nc2ccccc2P(C)(C)=O)n1 [Example 91, N-(3-((5-chloro-4-((2-(dimethylphosphoryl)phenyl)amino)pyrimidin-2-yl)amino)-4-methoxyphenyl)-4-methyl-4-(pyrrolidin-1-yl)pent-2-ynamide]",≥ 250
< 50,< 50,< 50,< 50,< 50,"COc1ccc(NC(=O)/C=C/CN2CCCCC2)cc1Nc1ncc(Cl)c(Nc2ccccc2P(C)(C)=O)n1 [Example 92, (E)—N-(3-((5-chloro-4-((2-(dimethylphosphoryl)phenyl)amino)pyrimidin-2-yl)amino)-4-methoxyphenyl)-4-(piperidin-1-yl)but-2-enamide]",≥ 250
< 50,≥ 250,< 50,< 50,< 50,"COc1ccc(NC(=O)C#Cc2ccccc2)cc1Nc1ncc(Cl)c(Nc2ccccc2P(C)(C)=O)n1 [Example 93, N-(3-((5-chloro-4-((2-(dimethylphosphoryl)phenyl)amino)pyrimidin-2-yl)amino)-4-methoxyphenyl)-3-phenylpropiolamide]",≥ 250
< 50,101 to 250,≥ 250,≥ 250,< 50,"COc1ccc(NC(=O)/C=C/C2(N)CC2)cc1Nc1ncc(Cl)c(Nc2ccccc2P(C)(C)=O)n1 [Example 94, (E)-3-(1-aminocyclopropyl)-N-(3-((5-chloro-4-((2-(dimethylphosphoryl)phenyl)amino)pyrimidin-2-yl)amino)-4-methoxyphenyl)acrylamide]",≥ 250
< 50,≥ 250,50 to 100,≥ 250,< 50,"COc1ccc(NC(=O)/C=C/CN2CCCC2)cc1Nc1ncc(Cl)c(Nc2ccccc2P(C)(C)=O)n1 [Example 95, (E)—N-(3-((5-chloro-4-((2-(dimethylphosphoryl)phenyl)amino)pyrimidin-2-yl)amino)-4-methoxyphenyl)-4-(pyrrolidin-1-yl)but-2-enamide]",≥ 250
< 50,≥ 250,< 50,< 50,< 50,"C=CC(=O)Nc1cc(Nc2ncc(Cl)c(Nc3ccccc3P(C)(C)=O)n2)c(OC)cc1C#CCN(CC)CC [Example 96, N-(5-((5-chloro-4-((2-(dimethylphosphoryl)phenyl)amino)pyrimidin-2-yl)amino)-2-(3-(diethylamino)prop-1-yn-1-yl)-4-methoxyphenyl)acrylamide]",≥ 250
< 50,< 50,< 50,< 50,< 50,"COCC#CC(=O)Nc1ccc(OC)c(Nc2ncc(Cl)c(Nc3ccccc3P(C)(C)=O)n2)c1 [Example 97, N-(3-((5-chloro-4-((2-(dimethylphosphoryl)phenyl)amino)pyrimidin-2-yl)amino)-4-methoxyphenyl)-4-methoxybut-2-ynamide]",≥ 250
< 50,< 50,< 50,< 50,< 50,"C=CC(=O)Nc1cc(Nc2ncc(Cl)c(Nc3ccc(OCCN4CCCC4)cc3P(C)(C)=O)n2)c(OC)cc1F [Example 98, N-(5-((5-chloro-4-((2-(dimethylphosphoryl)-4-(2-(pyrrolidin-1-yl)ethoxy)phenyl)amino)pyrimidin-2-yl)amino)-2-fluoro-4-methoxyphenyl)acrylamide]",≥ 250
< 50,< 50,< 50,50 to 100,< 50,"C=CC(=O)Nc1ccc(OC)c(Nc2ncc(Cl)c(Nc3ccc(OC4CCOC4)cc3P(C)(C)=O)n2)c1 (stereo not drawn) [Example 99, N-(3-((5-chloro-4-((2-(dimethylphosphoryl)-4-((tetrahydrofuran-3-yl)oxy)phenyl)amino)pyrimidin-2-yl)amino)-4-methoxyphenyl)acrylamide]",≥ 250
< 50,50 to 100,< 50,< 50,< 50,"C=CC(=O)Nc1ccc(OC)c(Nc2ncc(Cl)c(Nc3ccc(OCC4CCOCC4)cc3P(C)(C)=O)n2)c1 [Example 100, N-(3-((5-chloro-4-((2-(dimethylphosphoryl)-4-((tetrahydro-2H-pyran-4-yl)methoxy)phenyl)amino)pyrimidin-2-yl)amino)-4-methoxyphenyl)acrylamide]",≥ 250
< 50,< 50,< 50,< 50,< 50,"COc1cc(N2CCOCC2)c(NC(=O)C#CCCN2CCCCC2)cc1Nc1ncc(Cl)c(Nc2ccccc2P(C)(C)=O)n1 [Example 101, N-(5-((5-chloro-4-((2-(dimethylphosphoryl)phenyl)amino)pyrimidin-2-yl)amino)-4-methoxy-2-morpholinophenyl)-5-(piperidin-1-yl)pent-2-ynamide]",≥ 250
